Measurements: ChEMBL document CHEMBL5113380, “Functionalized quinoxalinones as privileged structures with broad-ranging pharmacological activities” (Eur J Med Chem, 2022)
In brackets after ≈: the same amount, converted by molar mass.

How the values were obtained:
[1] = target: Vascular endothelial growth factor receptor 2 (Homo sapiens, UniProt P35968)
MCF7 = test: Antiproliferative activity against human MCF7 cells; assay type: functional, cell-based
HepG2 = test: Antiproliferative activity against human HepG2 cells; assay type: functional, cell-based
Escherichia coli [2] = test: Antibacterial activity against Escherichia coli; assay type: functional
Staphylococcus aureus = test: Antibacterial activity against Staphylococcus aureus; assay type: functional
Candida albicans = test: Antifungal activity against Candida albicans; assay type: functional
Enterococcus faecalis = test: Antibacterial activity against Enterococcus faecalis; assay type: functional
Klebsiella pneumoniae = test: Antibacterial activity against Klebsiella pneumoniae; assay type: functional
Aspergillus fumigatus = test: Antifungal activity against Aspergillus fumigatus; assay type: functional
[3] = test system: Mycobacterium tuberculosis; test: Antimycobacterial activity against Mycobacterium tuberculosis H37Rv; assay type: functional
Pseudomonas aeruginosa = test: Antibacterial activity against Pseudomonas aeruginosa; assay type: functional
Escherichia coli [4] = test: Antibacterial activity against Escherichia coli W3110; assay type: functional
[5] = Inhibition of Escherichia coli topoisomerase 4
[6] = Dissociation constant, pKa of the compound; assay type: physicochemical
Streptococcus pneumoniae = test: Antibacterial activity against Streptococcus pneumoniae; assay type: functional
[7] = Inhibition of ALR2 (unknown origin); parameters: species or system Homo sapiens
[8] = Inhibition of ALR1 (unknown origin) relative to control; parameters: concentration or dose not given beside the values; conditions: Homo sapiens; concentration not given here
[9] = Antioxidant activity assessed as DPPH radical scavenging activity at 100 uM; assay type: functional
[10] = Inhibition of lipid peroxidation at 100 uM by measuring MDA concentration; assay type: functional
[11] = Antioxidant activity assessed as DPPH radical scavenging activity; assay type: functional
[12] = Antioxidant activity assessed as H2O2 radical scavenging activity; assay type: functional
[13] = Antioxidant activity assessed as NO radical scavenging activity; assay type: functional
Papillary muscle = test: Positive inotropic activity in ferret papillary muscle assessed as contractile force measured as CFC20; assay type: functional, Mustela putorius furo
Mesenteric vein = test: Vasorelaxant activity in dog mesenteric veins; assay type: functional, tissue-based; conditions: Canis lupus familiaris
Coronary artery = test: Vasorelaxant activity in dog coronary arteries; assay type: functional, tissue-based; conditions: Canis lupus familiaris
[14] = target: 3',5'-cyclic phosphodiesterase; test: Inhibition of cAMP-specific 3',5'-cyclic phosphodiesterase (unknown origin); assay type: protein assay, Homo sapiens
[15] = Inhibition of cGMP-dependent 3',5'-cyclic phosphodiesterase (unknown origin); parameters: species or system Homo sapiens

Sequence of Vascular endothelial growth factor receptor 2 (P35968 whole entry): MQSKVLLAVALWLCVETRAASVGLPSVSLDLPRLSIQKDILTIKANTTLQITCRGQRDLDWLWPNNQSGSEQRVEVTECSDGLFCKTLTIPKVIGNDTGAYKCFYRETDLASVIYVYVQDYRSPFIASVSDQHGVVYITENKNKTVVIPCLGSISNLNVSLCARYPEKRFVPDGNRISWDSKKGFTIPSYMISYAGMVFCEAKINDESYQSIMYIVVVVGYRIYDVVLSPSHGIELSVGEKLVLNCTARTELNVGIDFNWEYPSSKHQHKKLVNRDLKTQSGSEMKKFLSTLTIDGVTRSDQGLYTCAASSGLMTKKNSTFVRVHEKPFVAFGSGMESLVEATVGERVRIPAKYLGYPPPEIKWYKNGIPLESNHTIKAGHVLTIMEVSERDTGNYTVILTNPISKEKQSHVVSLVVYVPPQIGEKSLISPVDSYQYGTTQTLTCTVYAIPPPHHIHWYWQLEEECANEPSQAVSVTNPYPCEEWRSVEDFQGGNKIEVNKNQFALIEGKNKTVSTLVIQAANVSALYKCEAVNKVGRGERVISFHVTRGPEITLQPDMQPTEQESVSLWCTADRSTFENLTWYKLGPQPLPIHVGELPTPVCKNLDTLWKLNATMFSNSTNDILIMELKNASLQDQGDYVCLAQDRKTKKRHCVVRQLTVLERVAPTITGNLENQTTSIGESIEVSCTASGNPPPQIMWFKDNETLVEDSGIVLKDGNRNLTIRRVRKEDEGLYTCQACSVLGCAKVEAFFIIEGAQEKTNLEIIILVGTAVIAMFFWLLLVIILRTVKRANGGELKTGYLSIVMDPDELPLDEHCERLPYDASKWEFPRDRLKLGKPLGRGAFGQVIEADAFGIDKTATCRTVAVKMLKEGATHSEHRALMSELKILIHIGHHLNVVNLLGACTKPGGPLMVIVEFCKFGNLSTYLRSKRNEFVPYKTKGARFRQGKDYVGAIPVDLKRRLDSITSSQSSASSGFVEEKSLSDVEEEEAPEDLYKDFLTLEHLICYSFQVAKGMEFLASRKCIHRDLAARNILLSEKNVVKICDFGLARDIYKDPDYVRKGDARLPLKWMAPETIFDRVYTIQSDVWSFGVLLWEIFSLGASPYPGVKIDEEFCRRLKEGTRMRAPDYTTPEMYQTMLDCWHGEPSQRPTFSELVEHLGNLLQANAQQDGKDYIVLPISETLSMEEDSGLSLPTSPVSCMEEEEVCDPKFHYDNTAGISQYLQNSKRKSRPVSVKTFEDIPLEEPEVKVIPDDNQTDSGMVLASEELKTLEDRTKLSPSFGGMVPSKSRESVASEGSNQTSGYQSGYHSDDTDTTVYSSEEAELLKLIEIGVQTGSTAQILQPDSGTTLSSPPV

Cc1ccc(O)c(NC(=O)c2ccc(NC(=O)Cn3c(=O)c4nncn4c4ccccc43)cc2)c1
IC50 [1]: 0.0039 µM
IC50 (MCF7): 8.1 µM
IC50 (HepG2): 7.8 µM

C/C(=N\NC(=O)Cn1c(=O)c(C)nc2ccccc21)c1ccc(O)cc1
MIC (Escherichia coli [2]): 125 µg/mL (≈ 357 µM)
MIC (Staphylococcus aureus): 250 µg/mL (≈ 714 µM)
MIC (Candida albicans): 4 µg/mL (≈ 11.4 µM)
MIC (Enterococcus faecalis): 16.1 µg/mL (≈ 45.8 µM)
MIC (Klebsiella pneumoniae): 125 µg/mL (≈ 357 µM)
MIC (Aspergillus fumigatus): 4 µg/mL (≈ 11.4 µM)
MIC [3]: 25 µg/mL (≈ 71.4 µM)

N#Cc1ccc2ccc(=O)n(CCN3CC[C@H](NCc4cc5c(cn4)OCCO5)[C@H](F)C3)c2c1
MIC (Pseudomonas aeruginosa): > 8 µg/mL
MIC (Staphylococcus aureus): 0.06 µg/mL (≈ 0.129 µM)
MIC (Escherichia coli [4]): 4 µg/mL (≈ 8.63 µM)
IC50 [5]: 0.048 µM
pKa [6]: 4.47
MIC (Streptococcus pneumoniae): 0.13 µg/mL (≈ 0.28 µM)

O=C(O)Cn1c(=O)c(Oc2ccc(O)cc2)nc2cc(F)ccc21
IC50 [7]: 0.0196 µM
inhibition [8]: 11.8%
Activity [9]: 23.7%
inhibition [10]: 14.3%

N#Cc1ccc2c(c1)N(CCN1CCC(NCc3ccc4c(n3)NC(=O)CO4)CC1)C(=O)CO2
MIC (Pseudomonas aeruginosa): 2 µg/mL (≈ 4.32 µM)
MIC (Staphylococcus aureus): 0.13 µg/mL (≈ 0.281 µM)
MIC (Escherichia coli [4]): 0.25 µg/mL (≈ 0.541 µM)
IC50 [5]: 0.0032 µM
MIC (Streptococcus pneumoniae): 0.5 µg/mL (≈ 1.08 µM)

COc1ccc2ncc(=O)n(CCN3CCC(NCc4cc5c(cn4)OCCO5)CC3)c2c1
MIC (Pseudomonas aeruginosa): 4 µg/mL (≈ 8.86 µM)
MIC (Staphylococcus aureus): 0.02 µg/mL (≈ 0.0443 µM)
MIC (Escherichia coli [4]): 0.5 µg/mL (≈ 1.11 µM)
IC50 [5]: 0.005 µM
MIC (Streptococcus pneumoniae): 0.06 µg/mL (≈ 0.133 µM)

Cc1nc2ccccc2n(CC(=O)N/N=C/c2ccc(OCCn3cc(CN4CCCC4)nn3)cc2)c1=O
IC50 [11]: 27.17 µg/mL (≈ 52.8 µM)
IC50 [12]: 56.81 µg/mL (≈ 110 µM)
IC50 [13]: 53.19 µg/mL (≈ 103 µM)

Cc1ccc(-n2cc(COc3ccc(/C=N/NC(=O)Cn4c(=O)c(C)nc5ccccc54)cc3)nn2)cc1
IC50 [11]: 26.04 µg/mL (≈ 51.3 µM)
IC50 [12]: 52.08 µg/mL (≈ 103 µM)
IC50 [13]: 48.07 µg/mL (≈ 94.7 µM)

C/C(=N\NC(=O)Cn1c(=O)c(C)nc2ccccc21)c1ccc(N)cc1
MIC (Escherichia coli [2]): 125 µg/mL (≈ 358 µM)
MIC (Staphylococcus aureus): 125 µg/mL (≈ 358 µM)
MIC (Candida albicans): 16.1 µg/mL (≈ 46 µM)
MIC (Enterococcus faecalis): 16.1 µg/mL (≈ 46 µM)
MIC (Klebsiella pneumoniae): 125 µg/mL (≈ 358 µM)
MIC (Aspergillus fumigatus): 1 µg/mL (≈ 2.86 µM)
MIC [3]: 25 µg/mL (≈ 71.6 µM)

Oc1nc2cccnc2n2ccnc12
Activity (Papillary muscle): 2.2 µM
EC50 (Mesenteric vein): 10 µM
EC50 (Coronary artery): 11 µM
IC50 [14]: 44 µM
IC50 [15]: 27 µM

CCc1nc(C)c2c(O)nc3ccccc3n12
Activity (Papillary muscle): 0.2 µM
EC50 (Mesenteric vein): 0.8 µM
EC50 (Coronary artery): 1.7 µM
IC50 [14]: 2 µM
IC50 [15]: 0.4 µM

CCc1ncc2c(O)nc3cccnc3n12
Activity (Papillary muscle): 0.1 µM
EC50 (Mesenteric vein): 0.5 µM
EC50 (Coronary artery): 0.3 µM
IC50 [14]: 1 µM
IC50 [15]: 7 µM

COc1ccc(/C(C)=N/NC(=O)Cn2c(=O)c(C)nc3ccccc32)cc1
MIC (Escherichia coli [2]): 125 µg/mL (≈ 343 µM)
MIC (Staphylococcus aureus): 62.5 µg/mL (≈ 172 µM)
MIC (Candida albicans): 250 µg/mL (≈ 686 µM)
MIC (Enterococcus faecalis): 131 µg/mL (≈ 360 µM)
MIC (Klebsiella pneumoniae): 125 µg/mL (≈ 343 µM)
MIC (Aspergillus fumigatus): 8.06 µg/mL (≈ 22.1 µM)
MIC [3]: 25 µg/mL (≈ 68.6 µM)

O=C(Cn1c(=O)c2nncn2c2ccccc21)Nc1ccc(C(=O)Nc2cc(Cl)ccc2Cl)cc1
IC50 [1]: 0.0048 µM
IC50 (MCF7): 10.3 µM
IC50 (HepG2): 8.4 µM

Cc1nc2ccccc2n(CC(=O)N/N=C/c2ccc(OCCn3cc(CN4CCCCC4)nn3)cc2)c1=O
IC50 [11]: 28.24 µg/mL (≈ 53.4 µM)
IC50 [12]: 54.34 µg/mL (≈ 103 µM)
IC50 [13]: 52.08 µg/mL (≈ 98.5 µM)

Cc1nc2ccccc2n(CC(=O)N/N=C/c2ccc(OCCn3cc(CN4CCOCC4)nn3)cc2)c1=O
IC50 [11]: 25 µg/mL (≈ 47.1 µM)
IC50 [12]: 49.01 µg/mL (≈ 92.4 µM)
IC50 [13]: 47.16 µg/mL (≈ 88.9 µM)

CCc1nccn1-c1ncnc2c1nc(O)c1cnc(CC)n12
Activity (Papillary muscle): >100 µM
EC50 (Mesenteric vein): 23 µM
EC50 (Coronary artery): 59 µM
IC50 [14]: > 100 µM
IC50 [15]: 14 µM

C/C(=N\NC(=O)Cn1c(=O)c(C)nc2ccccc21)c1cccnc1
MIC (Escherichia coli [2]): 125 µg/mL (≈ 373 µM)
MIC (Staphylococcus aureus): 250 µg/mL (≈ 745 µM)
MIC (Candida albicans): 16.1 µg/mL (≈ 47.9 µM)
MIC (Enterococcus faecalis): 16.1 µg/mL (≈ 47.9 µM)
MIC (Klebsiella pneumoniae): 125 µg/mL (≈ 373 µM)
MIC (Aspergillus fumigatus): 8.06 µg/mL (≈ 24 µM)
MIC [3]: 25 µg/mL (≈ 74.5 µM)
